Experimental findings from patent publication US20160331743A1 (UROGEN PHARMA LTD, priority 2014, published 2016) are described below.

In the experiment the test system is carcinoma in situ (CIS) bladder cancer. The note with it: imiquimod 0.4%, once weekly for 6 weeks.

“Also recorded” adds a separate entry of the source. Read-outs that look alike come from different tables or passages of the source.

Excerpt: Patients who have been diagnosed with CIS bladder cancer are potential candidates for the study. The CIS lesion(s) may be primary, secondary, or recurrent, and may be concomitant to a Ta or T1 lesion, provided the Ta or T1 lesion has been fully resected.
After provision of written informed consent, patients are to be evaluated for study eligibility during the screening period within 28 days (4 weeks) before Day 0 (i.e., the first day of study drug administration). Screening evaluations to be performed include medical history, physical examination, vital signs, Eastern Cooperative Oncology Group (ECOG) performance status, hematology and clinical chemistry, and urinalysis with culture. Screening evaluations also include a cystoscopic examination of the bladder with mapping and biopsy/ies of all suspicious areas between Days −28 and −14, followed by a bladder washing for cytology. Patients who have undergone such examinations as part of the diagnostic process outside of the study are not required to undergo the procedures again, provided the examinations occurred within the specified timeframe and positive slides are available for a central pathology and cytology review.
In cases with no visible lesions, at least one biopsy will be taken at the prior positive site and at least 1 additional random biopsy will be taken. Response to treatment will be determined based on urine cytology and tissue sample histology findings.
Patients meeting all of the following criteria were considered eligible for study entry: • 1. Males or female patient is aged ≧18 years. • 2. Patient has pathologically-proven, recurrent, primary, secondary, or concomitant carcinoma in situ disease, defined by having either CIS alone or Ta or T1 with CIS, provided the Ta or T1 lesion(s) has/have been fully resected. In cases with T1 tumor lesions, muscularis propria tissue should be in the resected specimen to confirm that it is tumor-free. • 3. Patient has undergone mapping of the bladder between Days −28 and −14, with at least one biopsy providing pathological confirmation of CIS of the bladder. • 4. Patient has undergone bladder washing for cytology between Days −28 and −1. In patients in whom Ta or T1 lesion(s) were resected, the bladder washing must have occurred after the resection. • 5. Patient has an ECOG performance status 0-2. • 6. Patient has adequate bone marrow, hepatic, and renal function within 4 weeks before Day 0.

Consider `CC(C)Cn1cnc2c(N)nc3ccccc3c21` [imiquimod, 1-Isobutyl-1H-imidazo[4,5-c]quinolin-4-amine], for which the “Summary (response to treatment)” value was “Responder” (Patient 1 (BCG refractory, CIS), 50 mL intravesical); “partial responder” (Patient 2 (prior chemo, BCG; CIS), 50 mL intravesical, evaluation still ongoing); “Responder” (Patient 3 (no prior treatment, CIS + papillary cancer), 50 mL intravesical); “Responder” (Patient 5 (prior BCG/Mitomycin, CIS), 50 mL intravesical). For the same compound, the Histology post treatment result (Patient 1 (prior BCG, CIS prior to treatment), 200 mg in 50 mL intravesical, assessed 5 to 7 weeks after last dose) was “no tumor was detecable”; the Histology post treatment entry (Patient 2 (prior chemotherapy, BCG, 9x TURBT, CIS prior to treatment), 50 mL intravesical) is “still CIS detected and CIS”; the Histology post treatment entry (Patient 3 (no prior treatment, CIS + papillary high and low grade cancer prior to treatment), 50 mL intravesical) is “no tumor was detected any more; also recorded: No tumor”; the Histology post treatment entry (Patient 4 (prior TURB, low grade prior to treatment; had no CIS bladder cancer, excluded from study), 50 mL intravesical) is reported as “No tumor”; the Histology post treatment result (Patient 5 (prior BCG/Mitomycin, CIS prior to treatment), 50 mL intravesical) is reported as “no tumor was detectable”. For the same compound, the “Tumour detectable in follow-up evaluation” value (Patient 1, preliminary results, 50 mL intravesical) was “no tumour was detectable”. Further, the Cytology post treatment entry (Patient 3 (no prior treatment), 50 mL intravesical) is “no tumor was detected any more”. Besides, the “Number of patients with complete remission of the CIS bladder cancer as assessed by histology” value (of the 5 patients analyzed (patients 1, 3, 4, 5 counted), 50 mL intravesical) was “Four”.
